Data set [1] addresses T1, chimeric protein PPARα-Gal4 (Homo sapiens, UniProt Q07869).
T1 construct: Gal4 (fusion partner); expressed in transfected cells; host or cells: CV-1 cells (monkey kidney cells)
T1 sequence (Q07869 239-466 limits assumed): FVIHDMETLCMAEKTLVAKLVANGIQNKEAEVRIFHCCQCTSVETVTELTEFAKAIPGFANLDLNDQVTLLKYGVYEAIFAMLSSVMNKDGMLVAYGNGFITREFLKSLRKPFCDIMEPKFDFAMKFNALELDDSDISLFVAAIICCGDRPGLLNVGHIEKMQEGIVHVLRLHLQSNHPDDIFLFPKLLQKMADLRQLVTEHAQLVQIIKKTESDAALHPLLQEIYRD
Kind of data set: PPAR activation, Gal4 chimera luciferase reporter gene in co-transfected CV-1 cells. Type of data set: cell-based. To be noted: 50 μM, 18 hours contact, CV-1 cells (monkey kidney cells). How it is done: (§1) The measurement of the PPAR activation was performed according to a technique described by Lehmann et al. (J. Biol. Chem., 270, (1995), 12953-12956).
(§2) CV-1 cells (monkey kidney cells) are co-transfected with an expression vector for the chimeric proteins PPARα-Gal4 or PPARγ-Gal4 and with a “reporter” plasmid that allows the expression of the luciferase gene placed under the control of a promoter comprising Gal4 response elements.
(§3) The cells are plated into 96-well microplates and co-transfected using a commercial reagent with the reporter plasmid (pG5-tk-pGL3) and the expression vector for the chimeric protein (PPARα-Gal4 or PPARγ-Gal4). After incubating for 4 hours, whole culture medium (comprising 10% foetal calf serum) is added to the wells. After 24 hours, the medium is removed and replaced with whole medium comprising the test products (50 μM final). The products are left in contact with the cells for 18 hours. The cells are then lysed and the luciferase activity is measured using a luminometer. A PPAR activation factor can then be calculated by means of activation of the expression of the reporter gene induced by the product (relative to the control cells that have not received any product).

Data set [2] has as its target T2, chimeric protein PPARγ-Gal4 (Homo sapiens, UniProt P37231).
T2 construct: Gal4 (fusion partner); expressed in transfected cells; host or cells: CV-1 cells (monkey kidney cells)
T2 sequence (P37231 238-503 limits assumed): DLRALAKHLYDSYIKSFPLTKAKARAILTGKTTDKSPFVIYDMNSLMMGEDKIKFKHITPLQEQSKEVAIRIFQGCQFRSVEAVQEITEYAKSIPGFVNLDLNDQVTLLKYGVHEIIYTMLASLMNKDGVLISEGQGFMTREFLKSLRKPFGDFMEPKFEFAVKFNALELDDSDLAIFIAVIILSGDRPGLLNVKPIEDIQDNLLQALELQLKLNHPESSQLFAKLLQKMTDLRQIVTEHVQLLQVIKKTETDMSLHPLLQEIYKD
The description is as above. The format is cell-based. Conditions: 50 μM, 18 hours contact, CV-1 cells (monkey kidney cells). How it is done: as §1, §2, §3

For the next data set, the system named is Gal4 alone. Kind of data set: Control reporter test without the PPAR ligand binding domain (vector expressing Gal4 alone). The format is cell-based. To be noted: CV-1 cells. Here is the method: CV-1 cells (monkey kidney cells) are co-transfected with an expression vector for the chimeric proteins PPARα-Gal4 or PPARγ-Gal4 and with a “reporter” plasmid that allows the expression of the luciferase gene placed under the control of a promoter comprising Gal4 response elements. The cells are plated into 96-well microplates and co-transfected using a commercial reagent with the reporter plasmid (pG5-tk-pGL3) and the expression vector for the chimeric protein (PPARα-Gal4 or PPARγ-Gal4). After incubating for 4 hours, whole culture medium (comprising 10% foetal calf serum) is added to the wells. After 24 hours, the medium is removed and replaced with whole medium comprising the test products (50 μM final). The products are left in contact with the cells for 18 hours. The cells are then lysed and the luciferase activity is measured using a luminometer. A PPAR activation factor can then be calculated by means of activation of the expression of the reporter gene induced by the product (relative to the control cells that have not received any product). […] In the absence of the binding domain for the PPAR α or γ ligand (vector expressing Gal4 alone), the luciferase activity measured in the presence of this product is zero.

The next data set deals with db/db mice. Kind of data set: Antidiabetic and hypolipidaemiant activity, oral, in db/db mice. The format is in vivo. To be noted: 20 mg/kg/day orally for 15 days. How it is done: The antidiabetic and hypolipidaemiant activity of the compounds according to the invention was determined orally on db/db mice.
15-week-old db/db mice are treated orally for 15 days with the compound of Example 18 (20 mg/kg/day). Each group studied comprises seven animals. After treatment for 15 days, retro-orbital samples are taken under mild anaesthesia and after fasting for four hours.
The following parameters were measured:
Assay of the glycaemia (glucose oxidase) and of the lipid parameters on the sera at D15 (COBAS): triglycerides, total cholesterol (CHOL), HDL cholesterol (HDL-C) and free fatty acids (FFA) (BioMérieux and Waco Chemicals assay kit).
The measurements reported represent mean values±standard error.

[3] abbreviates: serum at D15, fasting four hours, mean ± standard error.

Marks after values point to notes of the source that are not given here.

Regarding `O=C(O)C(CCc1ccccc1)Oc1ccc2oc3ccccc3c2c1` (stereo not shown) [Example 152], the melting point (as a rule, the temperature of the solid-liquid transition) amounted to 136 °C.

In the case of `O=C(O)C(CCc1ccco1)Oc1ccc(C(F)(F)F)cc1` (stereo not shown) [Example 228], the melting point was 99 to 99.5 °C.

As to `O=C(O)[C@H](CCc1ccccc1)Oc1ccc(-c2cccnc2)cc1` [Example 7], the melting point was determined as 140 °C.

Regarding `O=C(O)C(CCc1cccs1)Oc1ccc(C(F)(F)F)cc1` (stereo not shown) [Example 229], the melting point was in the range of 116 to 118 °C.

The compound `O=C(c1ccc(Cl)cc1)c1ccc(O[C@@H](CCc2ccccc2)C(=O)O)cc1` [Example 6] had a melting point of 148 °C.

Turning to `COc1ccc(CCC(Oc2ccc(-c3cc4ccccc4s3)cc2)C(=O)O)cc1` (stereo not shown) [Example 142], the melting point is 198 to 199 °C.

The compound `O=C(O)C(CCc1ccc(F)cc1)Oc1ccc(-c2cc3ccccc3s2)cc1` (stereo not shown) [Example 146] had a melting point of 188 to 190 °C.

`Cc1cc(OC(CCc2ccccc2)C(=O)O)cc(=O)o1` (stereo not shown) [Example 207] registered a melting point of 165 °C.

As to `O=C(O)[C@H](CCc1ccccc1)Oc1ccc(-c2ccc(Cl)s2)cc1` [Example 18, (2S)-2-[4-(5-chlorothien-2-yl)phenoxy]-4-phenylbutanoic acid], the “PPAR activation factor (reporter gene expression relative to control cells)” value in data set [1] amounted to 16. Moreover, the “PPAR activation factor (reporter gene expression relative to control cells)” value in data set [2] amounted to 41. The “luciferase activity in the absence of the binding domain for the PPAR α or γ ligand” value with Gal4 alone is “zero”. In the data set with db/db mice (D15), the “CHOL, % var. (percentage of variation versus control)” value is listed as “+25 ** %”; the “FFA, % var. (percentage of variation versus control)” value was −40 ** %; the “Glycaemia, % var. (percentage of variation versus control)” value was −53 ** %; the “HDL-C, % var. (percentage of variation versus control)” value was “+10 * %”. Further, in the data set with db/db mice (D15), the “Triglycerides, % var. (percentage of variation versus control)” value is recorded as −41 ** %. Also, in the data set with db/db mice (setting [3]), the “CHOL (total cholesterol)” value stood at 4.57 ± 0.51 mM, the “FFA (free fatty acids)” value is 0.42 ± 0.06 mM, the Glycaemia came out at 12.65 ± 7.0 Mm and the HDL-C turned out to be 3.53 ± 0.24 mM. Also, in the data set with db/db mice (setting [3]), the Triglycerides is 0.77 ± 0.16 mM.

`O=C(O)[C@H](CCc1ccccc1)Oc1ccc(-c2cc3ccccc3o2)cc1` [Example 144] registered a melting point of 198 °C.

The compound `O=C(O)[C@H](CCc1ccccc1)Oc1cccc(OCc2ccc3ccccc3n2)c1` [Example 143] displayed a melting point of 124 °C.

`O=C(O)[C@H](CCc1ccccc1)Oc1ccc(-c2ccsc2)cc1` [Example 8] showed a melting point of 176 to 177 °C.

Consider `O=C(O)[C@H](CCc1ccccc1)Oc1ccc(-c2cccs2)cc1` [Example 9], for which the melting point was 151 to 153 °C.

As to `O=C(O)C(CCc1cccc(Cl)c1)Oc1ccc(-c2cc3ccccc3s2)cc1` (stereo not shown) [Example 141], the melting point lay in the range of 109 to 110 °C.

For the compound `O=C(O)C(CCc1ccco1)Oc1ccc(Br)cc1` (stereo not shown) [Example 227], the melting point lay within 102 to 104 °C.

`Cc1nc(-c2ccc(O[C@@H](CCc3ccccc3)C(=O)O)cc2)cs1` [Example 26]: the melting point fell in the range of 150 to 152 °C.

Values taken from patent US7678831B2, “Butanoic acid derivatives, processes for the preparation thereof, pharmaceutical compositions comprising them, and therapeutic applications thereof” (Merck Patent GmbH, priority 2004, dated 2010).
